Read-outs that look alike come from different tables or passages of the source.
Tests used:
in vitro = in vitro ADME; conditions: human; for remaining at 1 h, 100 µM: pH 7.4, % Intact Peptide in Plasma after 1 h; for remaining at 6 h, 100 µM: pH 7.4, % Intact Peptide in Plasma after 6 h; for remaining at 24 h, 100 µM: pH 7.4, % Intact Peptide in Plasma after 24 h; for remaining at 48 h, 100 µM: pH 7.4, % Intact Peptide in Plasma after 48 h; for % Intact Peptide in Plasma after 1 h / % Intact Peptide in Plasma after 6 h / % Intact Peptide in Plasma after 24 h / % Intact Peptide in Plasma after 48 h: 100 µM, pH 7.4
Description: The concentration of the peptides in plasma/PBS (1:2 v/v) was 80 and 4 μM (recovery determination) or 100 μM (stability tests). Data analysis was based on UV detection at 220 nm (8, 9, 11, 12, 14-18, 21-23, 38-49, and 54-57) or fluorescence detection at 275/305 nm (19 and 20). Reference samples, representing 100% recovery, were prepared in duplicate (8, 9, 11, 14-16, and 19-21) or quadruplicate (12, 17, 18, 22, 23, 38-49, and 54-57). Recovery ratios were obtained by dividing the recovery of the peptide by the recovery of IS for each individual sample (n = 3-5). The obtained recoveries and the recovery ratios are summarized in Table S2, Supplementary Materials. […] Instead, the recovery ratios determined for the previously reported, structurally closely related peptide […] [40] were used for calculating the amount of remaining intact peptide in plasma.

hNTS1R = target: T1, hNTS1R (Homo sapiens, UniProt P30989); assay: radioligand competition binding with [3H]UR-MK300 at intact HT-29 cells
T1 construct: intact HT-29 colon carcinoma cells expressing the hNTS1R; host or cells: HT-29 human colon carcinoma cells
T1 sequence (P30989 whole entry): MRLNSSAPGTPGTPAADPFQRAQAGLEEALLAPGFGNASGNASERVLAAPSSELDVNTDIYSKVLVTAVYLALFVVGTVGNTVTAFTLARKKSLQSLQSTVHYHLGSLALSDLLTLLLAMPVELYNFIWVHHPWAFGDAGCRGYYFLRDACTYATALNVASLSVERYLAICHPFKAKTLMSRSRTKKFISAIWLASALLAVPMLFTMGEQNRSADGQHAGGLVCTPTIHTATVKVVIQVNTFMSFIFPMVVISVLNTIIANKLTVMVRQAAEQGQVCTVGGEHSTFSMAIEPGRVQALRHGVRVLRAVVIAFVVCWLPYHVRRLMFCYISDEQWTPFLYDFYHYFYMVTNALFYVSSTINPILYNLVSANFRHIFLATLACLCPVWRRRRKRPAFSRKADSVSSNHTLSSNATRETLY
From the text: Specific binding data (obtained by subtracting unspecific binding from total binding) were normalized (100% = specifically bound radioligand in the absence of competitor) and plotted over log(concentration of competitor) followed by a four-parameter logistic fit (SigmaPlot 12.5, Systat Software, San José, CA, USA) (note: in the case of 40, the lower curve plateau of the sigmoidal fit was constrained to >0). […] The Ki values from individual experiments were transformed to pKi values, followed by the calculation of mean pKi values ± SD.

[1] = [3H]UR-MK300 c = 1 nM, HT-29 cells, 23 °C, read-out: Ki [nM] NTS1R (converted)
[2] = [3H]UR-MK300 c = 1 nM, HT-29 cells, 23 °C, read-out: pKi ± SD NTS1R (converted)

Row | Structure (SMILES) | remaining at 1 h, 100 µM (in vitro; plasma) [%] | remaining at 6 h, 100 µM (in vitro; plasma) [%] | remaining at 24 h, 100 µM (in vitro; plasma) [%] | remaining at 48 h, 100 µM (in vitro; plasma) [%] | Ki (hNTS1R; [1]) [nM] | Ki (hNTS1R; [2]) [nM] | other results
1 | CC[C@H](C)[C@H](NC(=O)[C@H](Cc1ccc(O)cc1)NC(=O)[C@@H]1CCCN1C(=O)[C@H](CCCNC(=N)NC(=O)NCCCCN)NC(=O)[C@H](CCCNC(=N)N)NC)C(=O)N[C@@H](CC(C)C)C(=O)O [Compound 9] | 99 ± 2 | 57 ± 2 | 3 ± 0.1 | 1.4 ± 0.3 | – | – | –
2 | CN[C@@H](CCCNC(=N)NC(=O)NCCOCCOCCN)C(=O)N[C@@H](CCCNC(=N)N)C(=O)N1CCC[C@H]1C(=O)N[C@@H](Cc1ccc(O)cc1)C(=O)N[C@H](C(=O)N[C@@H](CC(C)C)C(=O)O)C(C)(C)C [Compound 12] | 97 ± 3 | 97 ± 3 | 94 ± 3 | 91 ± 3 | 2.7 | 2.45 | –
3 | CC[C@H](C)[C@H](NC(=O)[C@H](Cc1ccc(O)cc1)NC(=O)[C@@H]1CCCN1C(=O)[C@H](CCCNC(=N)NC(=O)NCCCCNC(=O)CN1CCN(CC(=O)O)CCN(CC(=O)O)CCN(CC(=O)O)CC1)NC(=O)[C@H](CCCNC(=N)N)NC)C(=O)N[C@@H](CC(C)C)C(=O)O [Compound 15] | – | – | – | – | – | – | % Intact Peptide in Plasma after 1 h (in vitro): 78 ± 1%; % Intact Peptide in Plasma after 6 h (in vitro): 8.3 ± 0.4%
4 | CN[C@@H](CCCNC(=N)NC(=O)NCCOCCOCCNC(=O)CN1CCN(CC(=O)O)CCN(CC(=O)O)CCN(CC(=O)O)CC1)C(=O)N[C@@H](CCCNC(=N)N)C(=O)N1CCC[C@H]1C(=O)N[C@@H](Cc1ccc(O)cc1)C(=O)N[C@H](C(=O)N[C@@H](CC(C)C)C(=O)O)C(C)(C)C [Compound 18] | – | 99 ± 1 | – | – | 36 | – | % Intact Peptide in Plasma after 24 h (in vitro): 94 ± 1%; % Intact Peptide in Plasma after 48 h (in vitro): 86 ± 1%
5 | CC[C@H](C)[C@H](NC(=O)[C@H](Cc1ccc(O)cc1)NC(=O)[C@@H]1CCCN1C(=O)[C@H](CCCNC(=N)NC(=O)NCCCCNC(=O)CN1CCN(CC(=O)O)CCN(CC(=O)O)CCN(CC(=O)O)CC1)NC(=O)[C@H](CCCNC(=N)N)NC)C(=O)N[C@@H](CC(C)C)C(=O)O [Compound 20] | – | – | 15 ± 1 | 4.6 ± 0.1 | – | – | % Intact Peptide in Plasma after 1 h (in vitro): >99%; % Intact Peptide in Plasma after 6 h (in vitro): 77 ± 2%
6 | CN[C@@H](CCCNC(N)=NC(=O)NCCOCCOCCNC(=O)CN1CCN(CC(=O)O)CCN(CC(=O)O)CCN(CC(=O)O)CC1)C(=O)N[C@@H](CCCNC(=N)N)C(=O)N1CCC[C@H]1C(=O)N[C@@H](Cc1ccc(O)cc1)C(=O)N[C@H](C(=O)N[C@@H](CC(C)C)C(=O)O)C(C)(C)C [Compound 23] | > 99 | – | – | – | 7.5 | – | % Intact Peptide in Plasma after 6 h (in vitro): 98 ± 6%; % Intact Peptide in Plasma after 24 h (in vitro): 46 ± 2%; % Intact Peptide in Plasma after 48 h (in vitro): 7.8 ± 0.6%; pKi ± SD NTS1R (hNTS1R; [3H]UR-MK300 c = 1 nM, HT-29 cells, 23 °C): 8.13 ± 0.11
7 | CN[C@@H](CCCNC(N)=NC(=O)NCCCCNC(=O)[C@H](N)Cc1ccc(-c2ccc(F)cc2)cc1)C(=O)N[C@@H](CCCNC(=N)N)C(=O)N1CCC[C@H]1C(=O)N[C@@H](Cc1ccc(O)cc1)C(=O)N[C@H](C(=O)N[C@@H](CC(C)C)C(=O)O)C(C)(C)C [Compound 25] | – | – | – | – | 4.3 | 4.27 | –
8 | CN[C@@H](CCCNC(N)=NC(=O)NCCOCCOCCNC(=O)[C@H](N)Cc1ccc(-c2ccc(F)cc2)cc1)C(=O)N[C@@H](CCCNC(=N)N)C(=O)N1CCC[C@H]1C(=O)N[C@@H](Cc1ccc(O)cc1)C(=O)N[C@H](C(=O)N[C@@H](CC(C)C)C(=O)O)C(C)(C)C [Compound 26] | – | – | – | – | 3.1 | 3.02 | –
9 | CN[C@@H](CCCNC(N)=NC(=O)NCCOCCOCCNC(=O)[C@@H](Cc1ccc(-c2ccc(F)cc2)cc1)NC(=O)CCCCCNC(=O)CN1CCN(CC(=O)O)CCN(CC(=O)O)CCN(CC(=O)O)CC1)C(=O)N[C@@H](CCCNC(=N)N)C(=O)N1CCC[C@H]1C(=O)N[C@@H](Cc1ccc(O)cc1)C(=O)N[C@H](C(=O)N[C@@H](CC(C)C)C(=O)O)C(C)(C)C [Compound 32] | – | – | – | – | 12 | 10.7 | –
10 | CN[C@@H](CCCNC(N)=NC(=O)NCCOCCOCCNC(=O)[C@@H](Cc1ccc(-c2ccc(F)cc2)cc1)NC(=O)CCCCCNC(=O)CN1CCN(CC(=O)O)CCN(CC(=O)O)CCN(CC(=O)O)CC1)C(=O)N[C@@H](CCCNC(=N)N)C(=O)N1CCC[C@H]1C(=O)N[C@@H](Cc1ccc(O)cc1)C(=O)N[C@H](C(=O)N[C@@H](CC(C)C)C(=O)O)C(C)(C)C [Compound 33] | – | – | – | – | – | – | increase in NTS1R affinity upon insertion of Ga3+ (hNTS1R; versus the precursor with empty DOTA chelator (32 or 54)): 4.8 fold
11 | CN[C@@H](CCCNC(N)=NC(=O)NCCCCNC(=O)[C@@H](Cc1ccc(-c2ccc(F)cc2)cc1)NC(=O)CN1CCN(CC(=O)O)CCN(CC(=O)O)CCN(CC(=O)O)CC1)C(=O)N[C@@H](CCCNC(=N)N)C(=O)N1CCC[C@H]1C(=O)N[C@@H](Cc1ccc(O)cc1)C(=O)N[C@H](C(=O)N[C@@H](CC(C)C)C(=O)O)C(C)(C)C [Compound 34] | – | – | – | – | 10 | 10.2 | –
12 | CN[C@@H](CCCNC(N)=NC(=O)NCCOCCOCCNC(=O)[C@@H](Cc1ccc(-c2ccc(F)cc2)cc1)NC(=O)CN1CCN(CC(=O)O)CCN(CC(=O)O)CCN(CC(=O)O)CC1)C(=O)N[C@@H](CCCNC(=N)N)C(=O)N1CCC[C@H]1C(=O)N[C@@H](Cc1ccc(O)cc1)C(=O)N[C@H](C(=O)N[C@@H](CC(C)C)C(=O)O)C(C)(C)C [Compound 35] | – | – | – | – | 14 | 13.5 | –
13 | CC[C@@H](C)[C@H](NC(=O)[C@H](Cc1ccc(O)cc1)NC(=O)[C@@H]1CCCN1C(=O)[C@H](CCCNC(=N)N)NC(=O)[C@H](CCCNC(=N)N)NC)C(=O)N[C@@H](CC(C)C)C(=O)O [Compound 38] | 92 ± 1 | 87 ± 1 | 70 ± 1 | 52 ± 1 | 4.8 | 4.68 | –
14 | CCC(CC)(NC(=O)[C@H](Cc1ccc(O)cc1)NC(=O)[C@@H]1CCCN1C(=O)[C@H](CCCNC(=N)N)NC(=O)[C@H](CCCNC(=N)N)NC)C(=O)N[C@@H](CC(C)C)C(=O)O [Compound 39] | 93 ± 1 | 94 ± 1 | 93 ± 1 | 93 ± 1 | > 1000 | > 1000 | –
15 | CN[C@@H](CCCNC(=N)N)C(=O)N[C@@H](CCCNC(=N)N)C(=O)N1CCC[C@H]1C(=O)N[C@@H](Cc1ccc(O)cc1)C(=O)N[C@H](C(=O)N[C@@H](CC(C)C)C(=O)O)C1CC1 [Compound 40] | 88 ± 1 | 58 ± 1 | < 1 | < 1 | 9.6 | 8.91 | –
16 | CN[C@@H](CCCNC(=N)N)C(=O)N[C@@H](CCCNC(=N)N)C(=O)N1CCC[C@H]1C(=O)N[C@@H](Cc1ccc(O)cc1)C(=O)N[C@@H](CC1CC1)C(=O)N[C@@H](CC(C)C)C(=O)O [Compound 41] | 92 ± 1 | 74 ± 1 | 15 ± 1 | < 1 | 5 | – | –
17 | CC[C@H](C)[C@H](NC(=O)[C@H](Cc1ccc(O)cc1)NC(=O)[C@@H]1CCCN1C(=O)[C@H](CCCNC(=N)N)NC(=O)[C@H](CCCNC(=N)N)NC)C(=O)N[C@@](C)(CC(C)C)C(=O)O [Compound 47] | 89 ± 1 | 88 ± 1 | 81 ± 1 | 73 ± 1 | – | – | –
18 | CC[C@H](C)[C@H](NC(=O)[C@@H](NC(=O)[C@@H]1CCCN1C(=O)[C@H](CCCNC(=N)N)NC(=O)[C@H](CCCNC(=N)N)NC)C(C)(C)c1ccc(O)cc1)C(=O)N[C@@H](CC(C)C)C(=O)O [Compound 48] | 90 ± 4 | 97 ± 6 | 92 ± 1 | 92 ± 1 | – | – | –
19 | CC[C@H](C)[C@H](NC(=O)[C@H](NC(=O)[C@@H]1CCCN1C(=O)[C@H](CCCNC(=N)N)NC(=O)[C@H](CCCNC(=N)N)NC)C(C)(C)c1ccc(O)cc1)C(=O)N[C@@H](CC(C)C)C(=O)O [Compound 49] | 96 ± 2 | 96 ± 1 | 94 ± 5 | 95 ± 2 | – | – | –
20 | CN[C@@H](CCCNC(=N)NC(=O)NCCCCNC(=O)CN1CCN(CC(=O)O)CCN(CC(=O)O)CCN(CC(=O)O)CC1)C(=O)N[C@@H](CCCNC(=N)N)C(=O)N1CCC[C@H]1C(=O)N[C@H](C(=O)N[C@H](C(=O)N[C@@H](CC(C)C)C(=O)O)C(C)(C)C)C(C)(C)c1ccc(O)cc1 [Compound 55] | – | – | – | – | 85 | 79.4 | –
21 | CC[C@H](C)[C@H](NC(=O)[C@@H](NC(=O)[C@@H]1CCCN1C(=O)[C@H](CCCNC(=N)N)NC(=O)[C@H](CCCNC(N)=NC(=O)NCCCCNC(=O)CN1CCN(CC(=O)O)CCN(CC(=O)O)CCN(CC(=O)O)CC1)NC)C(C)(C)c1ccc(O)cc1)C(=O)N[C@@H](CC(C)C)C(=O)O [Compound 56] | > 99 | > 99 | 77 ± 1 | < 1 | – | – | half-life at 100 µM (in vitro; plasma): > 24 h
